Measurements taken from ChEMBL document CHEMBL1201862, “PubChem BioAssay data set” (2004).
Activity calls are given as the source filed them.

Columns and labels:
[1] = target: G-protein coupled receptor 55 (Homo sapiens, UniProt Q9Y2T6); assay: inhibition of LPI-stimulated GPR55 beta-arrestin translocation – imaging, U2OS, beta-arrestin-GFP, LPI agonist, primary screen (AID 2013); assay type: functional;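 also: antagonist potency measured as reduced agonist-driven arrestin aggregation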
[2] = target: fMet-Leu-Phe receptor (Homo sapiens, UniProt P21462); assay: formyl peptide receptor binders – dose response (AID 519); assay type: functional
[3] = target: T1, Estrogen receptor (Homo sapiens, UniProt P03372);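 also: potency for inhibiting coactivator peptide recruitment to the receptor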
T1 sequence (P03372 whole entry): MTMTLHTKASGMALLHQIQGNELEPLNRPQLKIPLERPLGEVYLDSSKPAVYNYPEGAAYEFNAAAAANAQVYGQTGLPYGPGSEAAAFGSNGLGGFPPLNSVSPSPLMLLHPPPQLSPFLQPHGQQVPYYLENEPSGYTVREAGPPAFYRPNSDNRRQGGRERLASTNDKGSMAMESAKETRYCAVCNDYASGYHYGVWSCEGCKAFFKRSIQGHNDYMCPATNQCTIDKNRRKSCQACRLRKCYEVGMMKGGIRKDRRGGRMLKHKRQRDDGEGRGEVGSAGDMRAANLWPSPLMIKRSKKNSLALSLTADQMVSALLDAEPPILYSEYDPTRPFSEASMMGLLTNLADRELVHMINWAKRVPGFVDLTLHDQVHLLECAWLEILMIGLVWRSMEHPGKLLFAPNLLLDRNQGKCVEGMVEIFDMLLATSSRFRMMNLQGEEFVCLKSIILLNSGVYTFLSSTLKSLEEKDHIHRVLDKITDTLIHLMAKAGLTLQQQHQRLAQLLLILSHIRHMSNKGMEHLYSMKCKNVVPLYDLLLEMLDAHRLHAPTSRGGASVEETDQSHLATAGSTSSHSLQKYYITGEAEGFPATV

[4] = target: T2, Mannose-6-phosphate isomerase (Homo sapiens, UniProt P34949); assay: MPI inhibition at elevated mannose 6-phosphate – biochemical, fluorescence intensity, high mannose 6-phosphate, primary screen (AID 1220)
T2 sequence (P34949 whole entry): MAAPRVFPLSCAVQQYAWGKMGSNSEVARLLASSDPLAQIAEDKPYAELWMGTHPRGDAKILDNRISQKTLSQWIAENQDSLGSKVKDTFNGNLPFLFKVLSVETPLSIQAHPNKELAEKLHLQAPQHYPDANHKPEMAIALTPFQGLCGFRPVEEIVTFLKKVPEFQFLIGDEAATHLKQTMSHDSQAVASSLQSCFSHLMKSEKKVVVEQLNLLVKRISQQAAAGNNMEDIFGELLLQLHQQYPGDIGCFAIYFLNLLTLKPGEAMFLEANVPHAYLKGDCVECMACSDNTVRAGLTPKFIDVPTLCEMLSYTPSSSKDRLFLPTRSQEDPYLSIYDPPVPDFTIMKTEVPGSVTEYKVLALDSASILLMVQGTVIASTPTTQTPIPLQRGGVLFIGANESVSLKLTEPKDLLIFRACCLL

[5] = target: T2, Mannose-6-phosphate isomerase; assay: MPI enzyme activity inhibition – biochemical, fluorescence intensity, coupled assay, primary screen (AID 1209)
[6] = target: Fructose-bisphosphate aldolase (Mycobacterium tuberculosis, UniProt P9WQA3); assay: Fluorescence-based biochemical high throughput dose response assay for inhibitors of the fructose-bisphosphate aldolase (FBA) of M. tuberculosis.; assay type: functional
[7] = NIH3T3 cell viability loss – ATP luminescence, mouse fibroblasts, counter-screen, dose response (AID 2010); assay type: functional, cell-based;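 also: cells exposed to compound for about 90 hours before reading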
[8] = Luminescence Cell-Based Dose Retest to Confirm Inhibitors of Cancer Stem Cells. [Related pubchem assays (depositor defined):AID2717, AID2721]; assay type: functional; conditions: Homo sapiens
[9] = potency of ADAM10 substrate cleavage blockers – biochemical, QFRET, dose response (AID 743254);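 also: ADAM10 enzyme with the DM2 quenched FRET peptide as substrate; EDANS fluorescence gain as the protease cuts the substrate; inhibitor potency against ADAM10 proteolytic activity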
[10] = Trypanosoma cruzi growth suppression in host cells – NIH3T3 host cells, beta-gal luminescence, confirmation (AID 2044); assay type: functional, cell-based;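 also: intracellular parasites grown in NIH/3T3 mouse fibroblasts as host cells; luminescent beta-galactosidase reporter signal from transgenic T. cruzi replicating inside host cells; inhibitors lower the luminescence signal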
[11] = target: Disintegrin and metalloproteinase domain-containing protein 17 (Homo sapiens, UniProt P78536); assay: inhibition of ADAM17 substrate cleavage – biochemical, quenched FRET substrate, counter-screen for ADAM10 exosite inhibitor project, dose response (AID 743253)
[12] = target: Beta-galactosidase (Escherichia coli, UniProt Q8VNN2); assay: Dose response counterscreen for EBI2 assay utilizing the enzyme, b-galactosidase.; assay type: functional
[13] = viability of uninfected HEp-2 cells – cell-based, HTS, cytotoxicity control for RSV inhibitor project, dose response (AID 2410); assay type: functional; conditions: human respiratory syncytial virus
[14] = viability loss in THP-1 monocytes – THP-1 cells, cytotoxicity control for Vif-APOBEC3G degradation inhibitor project, dose response (AID 1117359); assay type: functional; conditions: THP-1
[15] = target: T3, Caspase-6 (Homo sapiens, UniProt P55212); assay: inhibition of CASP6 peptide cleavage – biochemical, VEID-R110 fluorescence, cherry-pick, dose response (AID 720632)
T3 sequence (P55212 whole entry): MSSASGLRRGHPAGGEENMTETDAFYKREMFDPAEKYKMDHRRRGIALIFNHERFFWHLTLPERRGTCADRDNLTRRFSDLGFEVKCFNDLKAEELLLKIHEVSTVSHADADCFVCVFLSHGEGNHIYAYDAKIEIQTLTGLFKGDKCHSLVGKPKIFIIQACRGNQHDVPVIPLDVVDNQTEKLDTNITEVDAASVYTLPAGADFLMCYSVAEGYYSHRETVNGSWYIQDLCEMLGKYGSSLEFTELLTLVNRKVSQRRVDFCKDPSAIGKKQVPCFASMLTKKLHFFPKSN

[16] = target: T4, Protein Tat (Human immunodeficiency virus type 1 group M subtype B (isolate HXB2)(HIV-1), UniProt P04608); assay type: functional;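 also: tat binding to TAR RNA read out by fluorescence polarization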
T4 sequence (P04608 whole entry): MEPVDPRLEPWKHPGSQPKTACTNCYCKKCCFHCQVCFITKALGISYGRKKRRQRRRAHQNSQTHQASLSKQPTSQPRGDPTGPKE

[17] = target: Caspase-8 (Homo sapiens, UniProt Q14790); assay: inhibitors of purified CASP8 protease – biochemical, Z-IETD-R110 fluorescence, cherry-picked samples, selectivity assay for caspase-6 inhibitor project, dose response (AID 743294)
[18] = target: T5, Caspase-7 (Homo sapiens, UniProt P55210); assay: caspase-7 enzyme inhibition, selectivity check – biochemical, DEVD-R110 fluorescence, cherry-pick, selectivity assay for caspase-6 inhibitor project, dose response (AID 743295); assay type: functional
T5 sequence (P55210 whole entry): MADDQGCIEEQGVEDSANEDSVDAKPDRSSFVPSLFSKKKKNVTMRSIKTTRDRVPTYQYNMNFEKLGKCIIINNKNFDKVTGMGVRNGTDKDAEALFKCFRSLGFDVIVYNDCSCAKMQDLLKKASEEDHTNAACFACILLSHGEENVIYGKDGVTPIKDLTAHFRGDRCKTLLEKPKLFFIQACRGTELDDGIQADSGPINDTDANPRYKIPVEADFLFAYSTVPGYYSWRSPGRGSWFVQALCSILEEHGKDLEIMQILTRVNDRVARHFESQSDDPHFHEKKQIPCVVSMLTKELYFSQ

[19] = NIH-3T3 fibroblast cytotoxicity, dose response, cytotoxicity control, cell-based, fluorescence, Alamar Blue, secondary assay (AID 2327); assay type: functional;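 also: NIH-3T3 mouse fibroblasts cultured with fluconazole at 8 µg/mL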
[20] = target: Albumin (Bos taurus, UniProt P02769); assay: Counterscreen for inhibitors of T-cell receptor (TCR)-CD3 interaction: Fluorescence-based biochemical high throughput dose response assay to identify inhibitors of T-cell receptor (TCR)-CD3 interaction using a TAMRA-labeled BSA probe.; assay type: functional
[21] = fluconazole-exposed Candida albicans growth modulators – fluorescence, retest, confirmation (AID 2467); assay type: functional, cell-based
[22] = target: Rho-associated protein kinase 1 (Homo sapiens, UniProt Q13464); assay type: functional;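 also: measured within a broad kinome-wide panel profiling many kinases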
[23] = target: Vascular endothelial growth factor receptor 2 (Homo sapiens, UniProt P35968); assay type: functional
[24] = cytotoxicity in HEK293 background cells – cell-based, dry powder, set 2, counter-screen for EBV LMP1 inhibitor project, dose response (AID 624374); assay type: functional
[25] = Late stage assay provider results from the probe development effort to identify inhibitors of the Plasmodium falciparum M18 Aspartyl Aminopeptidase (M18AAP): radiolabel-based cell-based dose response assay to identify compounds that inhibit P. falciparum growth in RBCs, Set 2..; assay type: functional
[26] = T. cruzi growth inhibition in host cells, dose response, cell-based, plate reader, dry powder, set 2 (AID 652275); assay type: functional
[27] = MITF: Counter assay: A375 proliferation Measured in Cell-Based System Using Plate Reader - 2084-03_Inhibitor_Dose_DryPowder_Activity_Set8.; assay type: functional; conditions: A-375
[28] = MITF Orthogonal Assay: SK-MEL-5 CTG Assay Measured in Cell-Based System Using Plate Reader - 2084-02_Inhibitor_Dose_DryPowder_Activity_Set7.; assay type: functional
[29] = target: T6, DNA repair protein RAD52 homolog (Homo sapiens, UniProt P43351); assay type: functional, biochemical
T6 sequence (P43351 whole entry): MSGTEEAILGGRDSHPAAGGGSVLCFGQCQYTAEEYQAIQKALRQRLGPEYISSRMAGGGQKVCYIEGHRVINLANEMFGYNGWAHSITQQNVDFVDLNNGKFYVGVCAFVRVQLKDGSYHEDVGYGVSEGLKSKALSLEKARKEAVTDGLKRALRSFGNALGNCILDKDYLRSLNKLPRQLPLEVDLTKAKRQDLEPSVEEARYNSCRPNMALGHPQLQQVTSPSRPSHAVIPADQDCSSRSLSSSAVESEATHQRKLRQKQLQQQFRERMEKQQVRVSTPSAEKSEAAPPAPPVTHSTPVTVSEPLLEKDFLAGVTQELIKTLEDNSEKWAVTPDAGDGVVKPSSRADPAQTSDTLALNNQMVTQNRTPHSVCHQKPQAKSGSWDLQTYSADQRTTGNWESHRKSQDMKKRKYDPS

[30] = cells; assay type: functional, cell-based
[31] = cells; assay type: functional
[32] = THP-1 cell cytotoxicity, dose response, cytotoxicity control for non-replicating M. tuberculosis project (AID 489025); assay type: functional
[33] = Vero E6 cell cytotoxicity, dose response, cytotoxicity control for non-replicating M. tuberculosis project, secondary assay (AID 492998); assay type: functional, VeroE6; conditions: Vero C1008
[34] = cells; assay type: functional, cell-based; remark: listed apart in the source

Caspase-8, sequence (Q14790 217-374 limits assumed): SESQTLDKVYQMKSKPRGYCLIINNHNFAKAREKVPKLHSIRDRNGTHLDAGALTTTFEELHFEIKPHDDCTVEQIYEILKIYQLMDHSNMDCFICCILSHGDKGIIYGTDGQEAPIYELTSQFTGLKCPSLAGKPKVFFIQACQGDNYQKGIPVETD
Caspase-8, sequence (Q14790 385-479 limits assumed): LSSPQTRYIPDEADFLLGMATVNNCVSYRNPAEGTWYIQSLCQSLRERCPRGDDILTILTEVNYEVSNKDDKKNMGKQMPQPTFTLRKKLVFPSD
Fructose-bisphosphate aldolase, sequence (P9WQA3 whole entry): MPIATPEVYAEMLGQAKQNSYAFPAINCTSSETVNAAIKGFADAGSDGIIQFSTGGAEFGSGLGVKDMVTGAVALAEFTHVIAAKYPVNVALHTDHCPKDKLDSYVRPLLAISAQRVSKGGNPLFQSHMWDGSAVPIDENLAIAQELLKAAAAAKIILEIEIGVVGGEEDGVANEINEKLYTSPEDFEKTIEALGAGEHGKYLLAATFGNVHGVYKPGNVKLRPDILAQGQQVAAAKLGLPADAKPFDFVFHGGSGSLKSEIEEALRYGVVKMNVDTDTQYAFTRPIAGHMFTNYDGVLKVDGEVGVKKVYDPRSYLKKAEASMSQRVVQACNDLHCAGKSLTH
Beta-galactosidase, sequence (Q8VNN2 whole entry): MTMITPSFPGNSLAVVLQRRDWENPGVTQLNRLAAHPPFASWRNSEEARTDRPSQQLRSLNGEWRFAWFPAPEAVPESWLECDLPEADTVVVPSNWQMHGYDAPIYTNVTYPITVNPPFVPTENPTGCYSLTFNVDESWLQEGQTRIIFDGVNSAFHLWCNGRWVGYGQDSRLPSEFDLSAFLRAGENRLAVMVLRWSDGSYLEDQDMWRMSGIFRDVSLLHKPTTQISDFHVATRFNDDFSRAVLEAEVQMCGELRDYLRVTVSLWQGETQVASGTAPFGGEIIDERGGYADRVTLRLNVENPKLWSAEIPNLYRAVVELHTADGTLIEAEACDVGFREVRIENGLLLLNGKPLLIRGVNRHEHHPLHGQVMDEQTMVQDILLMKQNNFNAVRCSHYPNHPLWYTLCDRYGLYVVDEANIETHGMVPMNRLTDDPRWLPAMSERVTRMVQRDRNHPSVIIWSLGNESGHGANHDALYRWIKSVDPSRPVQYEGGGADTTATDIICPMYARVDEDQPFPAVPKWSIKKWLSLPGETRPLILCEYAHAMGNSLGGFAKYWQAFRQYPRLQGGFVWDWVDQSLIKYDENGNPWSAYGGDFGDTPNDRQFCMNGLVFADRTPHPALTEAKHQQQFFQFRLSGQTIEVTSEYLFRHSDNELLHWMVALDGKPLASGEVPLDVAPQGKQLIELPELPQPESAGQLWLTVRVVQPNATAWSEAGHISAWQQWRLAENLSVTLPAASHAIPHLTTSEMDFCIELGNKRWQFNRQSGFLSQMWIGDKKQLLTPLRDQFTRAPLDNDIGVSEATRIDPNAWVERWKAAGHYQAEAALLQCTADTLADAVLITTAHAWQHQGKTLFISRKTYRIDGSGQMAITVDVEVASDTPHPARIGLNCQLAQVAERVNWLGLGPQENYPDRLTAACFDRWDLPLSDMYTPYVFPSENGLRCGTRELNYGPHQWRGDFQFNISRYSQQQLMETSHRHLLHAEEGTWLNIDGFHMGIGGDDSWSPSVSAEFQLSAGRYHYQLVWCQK
Disintegrin and metalloproteinase domain-containing protein 17, sequence (P78536 whole entry, the tested form may be a part): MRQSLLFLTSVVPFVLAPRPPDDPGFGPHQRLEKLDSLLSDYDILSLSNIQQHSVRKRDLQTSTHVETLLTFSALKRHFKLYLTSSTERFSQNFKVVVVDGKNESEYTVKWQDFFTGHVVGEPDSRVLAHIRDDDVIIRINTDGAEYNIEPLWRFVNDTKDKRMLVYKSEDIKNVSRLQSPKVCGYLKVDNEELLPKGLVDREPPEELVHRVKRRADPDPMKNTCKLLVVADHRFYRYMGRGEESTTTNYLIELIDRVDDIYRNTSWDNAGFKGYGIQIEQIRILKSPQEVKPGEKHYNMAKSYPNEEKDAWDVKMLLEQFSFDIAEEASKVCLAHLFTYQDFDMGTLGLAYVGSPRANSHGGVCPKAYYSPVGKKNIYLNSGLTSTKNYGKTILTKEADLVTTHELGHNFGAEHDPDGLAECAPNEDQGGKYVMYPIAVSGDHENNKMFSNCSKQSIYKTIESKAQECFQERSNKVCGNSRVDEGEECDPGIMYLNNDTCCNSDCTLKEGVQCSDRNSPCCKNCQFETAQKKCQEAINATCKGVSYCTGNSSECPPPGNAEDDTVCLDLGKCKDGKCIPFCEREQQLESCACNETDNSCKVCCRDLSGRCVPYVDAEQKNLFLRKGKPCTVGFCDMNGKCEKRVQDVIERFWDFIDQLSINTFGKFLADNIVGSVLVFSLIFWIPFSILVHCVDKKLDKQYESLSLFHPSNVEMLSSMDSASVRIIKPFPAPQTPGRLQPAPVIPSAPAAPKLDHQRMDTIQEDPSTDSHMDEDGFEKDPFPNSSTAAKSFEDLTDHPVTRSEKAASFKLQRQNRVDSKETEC
G-protein coupled receptor 55, sequence (Q9Y2T6 whole entry): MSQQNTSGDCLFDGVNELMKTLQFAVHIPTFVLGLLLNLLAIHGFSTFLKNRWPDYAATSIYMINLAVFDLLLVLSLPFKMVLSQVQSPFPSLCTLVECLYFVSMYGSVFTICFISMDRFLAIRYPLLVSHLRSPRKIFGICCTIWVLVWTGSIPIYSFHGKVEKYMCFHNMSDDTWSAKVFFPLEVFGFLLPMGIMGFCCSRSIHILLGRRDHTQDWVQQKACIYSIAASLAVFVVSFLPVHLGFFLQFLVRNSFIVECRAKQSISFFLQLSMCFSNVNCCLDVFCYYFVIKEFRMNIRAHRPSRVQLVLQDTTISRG
Vascular endothelial growth factor receptor 2, sequence (P35968 whole entry): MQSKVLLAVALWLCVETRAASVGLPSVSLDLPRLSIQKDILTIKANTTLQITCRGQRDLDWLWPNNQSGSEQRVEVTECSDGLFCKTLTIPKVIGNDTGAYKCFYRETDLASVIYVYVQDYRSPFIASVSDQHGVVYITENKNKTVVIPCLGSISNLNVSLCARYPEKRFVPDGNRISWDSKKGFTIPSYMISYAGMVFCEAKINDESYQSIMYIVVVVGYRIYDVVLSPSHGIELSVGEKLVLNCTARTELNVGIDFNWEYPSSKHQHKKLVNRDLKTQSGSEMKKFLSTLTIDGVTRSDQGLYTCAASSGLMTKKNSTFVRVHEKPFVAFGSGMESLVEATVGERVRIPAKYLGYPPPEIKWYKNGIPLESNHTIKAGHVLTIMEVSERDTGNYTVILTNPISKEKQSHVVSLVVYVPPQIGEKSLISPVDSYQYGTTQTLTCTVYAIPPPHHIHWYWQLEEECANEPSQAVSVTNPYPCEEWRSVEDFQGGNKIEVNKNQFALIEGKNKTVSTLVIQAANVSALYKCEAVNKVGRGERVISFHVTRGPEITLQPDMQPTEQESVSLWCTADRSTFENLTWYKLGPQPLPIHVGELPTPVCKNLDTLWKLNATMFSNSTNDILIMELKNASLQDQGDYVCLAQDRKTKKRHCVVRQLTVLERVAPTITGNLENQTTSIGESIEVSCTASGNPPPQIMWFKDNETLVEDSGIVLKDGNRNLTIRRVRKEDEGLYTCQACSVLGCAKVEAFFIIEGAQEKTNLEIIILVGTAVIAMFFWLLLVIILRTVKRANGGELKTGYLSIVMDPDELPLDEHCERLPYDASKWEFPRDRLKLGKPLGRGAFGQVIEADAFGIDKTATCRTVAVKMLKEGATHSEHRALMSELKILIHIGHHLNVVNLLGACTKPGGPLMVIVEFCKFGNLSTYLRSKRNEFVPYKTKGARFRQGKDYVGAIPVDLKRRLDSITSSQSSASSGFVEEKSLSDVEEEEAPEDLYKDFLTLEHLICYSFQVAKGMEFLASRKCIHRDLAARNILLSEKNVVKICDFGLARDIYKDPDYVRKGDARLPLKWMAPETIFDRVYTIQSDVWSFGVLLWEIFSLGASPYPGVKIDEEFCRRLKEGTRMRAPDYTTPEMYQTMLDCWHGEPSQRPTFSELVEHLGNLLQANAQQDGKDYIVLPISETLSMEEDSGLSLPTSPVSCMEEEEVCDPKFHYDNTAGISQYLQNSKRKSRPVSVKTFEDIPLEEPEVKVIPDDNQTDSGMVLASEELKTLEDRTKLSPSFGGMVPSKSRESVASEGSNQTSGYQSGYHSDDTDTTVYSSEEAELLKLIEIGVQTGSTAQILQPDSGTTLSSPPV
fMet-Leu-Phe receptor, sequence (P21462 whole entry): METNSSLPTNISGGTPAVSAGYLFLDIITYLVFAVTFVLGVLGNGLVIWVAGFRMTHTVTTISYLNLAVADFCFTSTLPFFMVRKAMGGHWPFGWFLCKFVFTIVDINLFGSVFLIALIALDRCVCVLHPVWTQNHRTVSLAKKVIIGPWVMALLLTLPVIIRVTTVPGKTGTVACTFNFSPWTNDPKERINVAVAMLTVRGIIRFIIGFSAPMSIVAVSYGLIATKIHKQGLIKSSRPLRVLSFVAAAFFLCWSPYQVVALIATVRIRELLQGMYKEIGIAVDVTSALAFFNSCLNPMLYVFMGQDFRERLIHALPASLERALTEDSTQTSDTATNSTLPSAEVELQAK

CCCCn1c(NC(=O)CC)c(C#N)c2nc3ccccc3nc21
IC50 [1]: 1.55 µM (active)
Ki [2]: 24.2 µM (inactive)
IC50 [3]: 23.4 µM (active)

Cn1ncc2c(NNC(=O)c3ccc(Cl)cc3Cl)ncnc21
IC50 [4]: > 50 µM (not active)
IC50 [5]: > 50 µM (not active)

COc1ccccc1N1C(=O)NC(=O)/C(=C/c2ccc3c4c(cccc24)CC3)C1=O
IC50 [6]: 2.23 µM (active)

Cc1ccc(C)c(N(C(=O)c2snc(C(N)=O)c2N)C(C(=O)NCC2CCCO2)c2cccs2)c1 (centres undefined)
IC50 [6]: > 1.11 µM (active)

OC(COCC(F)(F)C(F)(F)C(F)(F)C(F)F)Cn1c2ccccc2c2ccccc21 (centres undefined)
EC50 [7]: > 60 µM (inconclusive)
AC50 [8]: 2.9 µM (active)
IC50 [9]: > 7.73 µM (active)
EC50 [10]: 1.71 µM (active)
IC50 [11]: > 69.5 µM (inactive)

Cc1ccc(C)c(N2CCN(C(=O)c3cc4c(C)nc5ccccc5c4o3)CC2)c1
IC50 [12]: > 80 µM (inactive)
CC50 [13]: 8.05 µM (active)

CC(=O)NN1C(=O)/C(=C\c2ccc(Br)o2)SC1=S
CC50 [14]: > 40 µM (active)

CCOC(=O)C1=C(Nc2ccc(OC)cc2)S/C(=C\c2cc(OC)c(OC)c(OC)c2)C1=O
IC50 [12]: > 80 µM (inactive)

COc1ccc(NC(=O)CN(C)C(=O)c2cccc(-n3cccc3)c2)cc1
AC50 [15]: 4.5 µM (active)
IC50 [16]: > 100 µM (active)
AC50 [17]: 61.2 µM (active)
AC50 [18]: > 70 µM (inactive)

Cc1ccc(C(=O)NNC(=O)c2cc3ccccc3cc2O)cc1
EC50 [19]: > 160 µM (inactive)
IC50 [20]: > 94.1 µM (inactive)
EC50 [21]: 3.16 µM (active)

C=CCC[C@H](Cc1ccc(F)cc1)C(=O)OC[C@@H](Cc1c[nH]c2ccccc12)NC(=O)[C@@H](CC=C)CC(=O)N(CCO)Cc1ccccc1
AC50 [8]: 4.62 µM (active)
IC50 [9]: > 69.5 µM (inactive)
IC50 [11]: > 69.5 µM (inactive)

Oc1cc(O)cc(C=Cc2ccc(O)c(O)c2)c1
Ki [22]: 2.51 µM (active)
AC50 [15]: 1.2 µM (active)
Ki [23]: > 2.51 µM (inactive)
AC50 [17]: > 70 µM (inactive)
AC50 [18]: > 70 µM (inactive)

CO[C@H]1CN(C)C(=O)c2ccc(NC(=O)C3CC3)cc2OC[C@H](C)N(C(=O)c2ccccn2)C[C@H]1C
AbsAC35 [24]: 207.94 µM

Oc1cccc(CCNc2ccnc3ccccc23)c1O
IC50 [25]: 2.7 µM (active)

CC(C)N1C[C@H](C)[C@@H](CN(C)Cc2ccc(Oc3ccccc3)cc2)Oc2c(cccc2-c2cn(-c3ccncc3)nn2)C1=O
AC50 [26]: 0.0204 µM (active)

Cc1cccc(-c2ccc([C@H]3[C@H](CO)N4CCCCN(C(=O)c5ccncc5)C[C@@H]34)cc2)c1
AC50 [26]: 2.46 µM (active)

O=C1C=C(Nc2ccc3ccccc3c2)C(=O)c2ccccc21
AC50 [27]: 49.4 µM (active)
AC50 [28]: 1.65 µM (active)

NCCNc1c2ccccc2nc2ccccc12
IC50 [25]: 0.5 µM (active)

Cc1cc(N/N=C/c2ccccc2O)c2ccccc2n1
AC50 [29]: 5.36 µM (active)
IC50 [30]: > 29.9 µM (inactive)
IC50 [31]: 7.92 µM (active)
CC50 [32]: 25.6 µM (active)
CC50 [33]: 17.6 µM (active)
EC50 [34]: > 29.9 µM (inactive)
